This note sets out measurements from ChEMBL document CHEMBL2150931, “Design, synthesis, and biological activity of a novel series of human sirtuin-2-selective inhibitors” (J Med Chem, 2012).

Structures are written as SMILES.

For data set [1], the target named is T1, NAD-dependent protein deacetylase sirtuin-2 (Homo sapiens) (UniProt Q8IXJ6).
T1 sequence (whole entry): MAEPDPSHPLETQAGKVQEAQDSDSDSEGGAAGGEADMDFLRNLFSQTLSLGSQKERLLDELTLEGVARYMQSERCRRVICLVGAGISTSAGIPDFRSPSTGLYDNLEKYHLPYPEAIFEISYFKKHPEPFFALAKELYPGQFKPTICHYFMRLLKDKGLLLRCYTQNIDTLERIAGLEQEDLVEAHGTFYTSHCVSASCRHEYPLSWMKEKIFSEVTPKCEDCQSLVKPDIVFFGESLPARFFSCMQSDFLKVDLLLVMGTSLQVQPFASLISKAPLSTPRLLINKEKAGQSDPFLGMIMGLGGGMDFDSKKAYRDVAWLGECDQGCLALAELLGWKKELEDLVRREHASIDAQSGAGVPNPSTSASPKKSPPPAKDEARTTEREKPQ
The data set is described as follows: Binding affinity to recombinant SIRT2 by surface plasmon resonance assay.

For data set [2], the target named is T2, Histone deacetylase 7 (Homo sapiens, UniProt Q8WUI4).
T2 sequence (Q8WUI4 whole entry): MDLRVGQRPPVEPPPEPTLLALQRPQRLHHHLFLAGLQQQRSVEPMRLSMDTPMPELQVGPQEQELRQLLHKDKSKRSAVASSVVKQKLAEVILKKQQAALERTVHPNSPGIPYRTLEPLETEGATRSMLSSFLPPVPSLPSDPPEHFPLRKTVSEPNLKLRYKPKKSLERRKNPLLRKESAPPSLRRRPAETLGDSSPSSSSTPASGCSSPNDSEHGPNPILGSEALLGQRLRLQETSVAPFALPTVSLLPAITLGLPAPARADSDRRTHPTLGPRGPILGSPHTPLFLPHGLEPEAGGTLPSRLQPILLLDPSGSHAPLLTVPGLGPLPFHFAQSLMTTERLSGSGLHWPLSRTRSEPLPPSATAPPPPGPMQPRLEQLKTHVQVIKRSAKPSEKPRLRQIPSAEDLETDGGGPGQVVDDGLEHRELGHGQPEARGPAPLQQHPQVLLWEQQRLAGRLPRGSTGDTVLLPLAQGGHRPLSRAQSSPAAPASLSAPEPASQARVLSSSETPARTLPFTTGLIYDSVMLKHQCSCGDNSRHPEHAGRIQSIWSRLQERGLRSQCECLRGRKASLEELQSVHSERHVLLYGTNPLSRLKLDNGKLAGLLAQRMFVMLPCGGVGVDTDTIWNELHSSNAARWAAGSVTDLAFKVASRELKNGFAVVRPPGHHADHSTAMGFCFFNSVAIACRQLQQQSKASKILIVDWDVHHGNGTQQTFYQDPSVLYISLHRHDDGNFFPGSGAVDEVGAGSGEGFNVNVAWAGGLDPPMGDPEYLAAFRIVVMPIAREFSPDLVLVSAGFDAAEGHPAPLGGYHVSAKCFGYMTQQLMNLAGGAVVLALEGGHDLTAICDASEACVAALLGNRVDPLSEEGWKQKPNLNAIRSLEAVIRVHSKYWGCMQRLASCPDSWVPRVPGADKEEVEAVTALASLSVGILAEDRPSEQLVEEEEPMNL
The data set is described as follows: Inhibition of HDAC7.

For data set [3], the target named is Histone deacetylase 1 (Homo sapiens, UniProt Q13547). The data set is described as follows: Inhibition of HDAC1.
The target of data set [4] is Histone deacetylase 3 (Homo sapiens, UniProt O15379). The data set is described as follows: Inhibition of HDAC3.
Data set [5] addresses T3, Histone deacetylase 8 (Homo sapiens, UniProt Q9BY41).
T3 sequence (Q9BY41 whole entry): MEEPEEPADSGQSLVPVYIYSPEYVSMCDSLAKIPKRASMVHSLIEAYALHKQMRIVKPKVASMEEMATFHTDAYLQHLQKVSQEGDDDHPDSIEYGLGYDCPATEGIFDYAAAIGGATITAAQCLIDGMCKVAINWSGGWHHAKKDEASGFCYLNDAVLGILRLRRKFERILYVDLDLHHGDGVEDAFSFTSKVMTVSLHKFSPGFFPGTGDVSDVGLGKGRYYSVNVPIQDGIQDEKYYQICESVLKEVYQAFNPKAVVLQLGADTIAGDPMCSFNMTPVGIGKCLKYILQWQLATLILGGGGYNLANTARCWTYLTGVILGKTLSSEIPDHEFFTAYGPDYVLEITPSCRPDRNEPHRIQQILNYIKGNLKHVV
In words: Inhibition of HDAC8.

The target of data set [6] is Histone deacetylase 9 (Homo sapiens, UniProt Q9UKV0). In words: Inhibition of HDAC9.
For data set [7], the target named is Histone deacetylase 5 (Homo sapiens, UniProt Q9UQL6). In words: Inhibition of HDAC5.
Data set [8] can be described thus: Metabolic stability in human liver microsomes assessed as compound remaining at 0.5 mg after 15 mins. It counts as ADME, Microsome. To be noted: read-out: Stability. (Liver microsomes are a subcellular fraction often used to study metabolism.)
The target of data set [9] is Histone deacetylase 2 (Homo sapiens, UniProt Q92769). The data set is described as follows: Inhibition of HDAC2.
Sequence of Histone deacetylase 2 (Q92769 whole entry): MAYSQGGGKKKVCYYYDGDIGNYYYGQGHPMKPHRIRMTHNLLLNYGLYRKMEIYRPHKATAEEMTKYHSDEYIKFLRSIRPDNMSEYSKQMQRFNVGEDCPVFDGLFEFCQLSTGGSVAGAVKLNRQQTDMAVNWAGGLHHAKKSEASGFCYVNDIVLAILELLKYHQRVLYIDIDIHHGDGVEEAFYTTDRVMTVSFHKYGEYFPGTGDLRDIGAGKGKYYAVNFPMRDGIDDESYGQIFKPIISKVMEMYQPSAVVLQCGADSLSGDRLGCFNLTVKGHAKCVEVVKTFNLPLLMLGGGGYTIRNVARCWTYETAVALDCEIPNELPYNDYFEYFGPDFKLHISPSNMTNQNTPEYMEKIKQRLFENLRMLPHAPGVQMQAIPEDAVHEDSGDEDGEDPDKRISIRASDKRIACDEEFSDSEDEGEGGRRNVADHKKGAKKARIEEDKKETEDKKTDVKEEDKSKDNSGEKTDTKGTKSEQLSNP

Sequence of Histone deacetylase 3 (O15379 whole entry): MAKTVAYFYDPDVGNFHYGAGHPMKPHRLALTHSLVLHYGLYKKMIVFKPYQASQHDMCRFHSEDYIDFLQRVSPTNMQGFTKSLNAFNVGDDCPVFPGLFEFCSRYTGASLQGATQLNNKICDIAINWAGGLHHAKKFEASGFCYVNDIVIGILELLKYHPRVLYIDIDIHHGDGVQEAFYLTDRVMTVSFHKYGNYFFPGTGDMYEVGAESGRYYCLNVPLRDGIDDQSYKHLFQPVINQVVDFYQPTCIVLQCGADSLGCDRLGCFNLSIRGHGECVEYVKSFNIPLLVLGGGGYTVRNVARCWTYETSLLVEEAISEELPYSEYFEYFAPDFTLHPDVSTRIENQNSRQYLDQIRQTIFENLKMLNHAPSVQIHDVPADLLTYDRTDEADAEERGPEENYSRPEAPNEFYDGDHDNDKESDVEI
Sequence of Histone deacetylase 9 (Q9UKV0 whole entry): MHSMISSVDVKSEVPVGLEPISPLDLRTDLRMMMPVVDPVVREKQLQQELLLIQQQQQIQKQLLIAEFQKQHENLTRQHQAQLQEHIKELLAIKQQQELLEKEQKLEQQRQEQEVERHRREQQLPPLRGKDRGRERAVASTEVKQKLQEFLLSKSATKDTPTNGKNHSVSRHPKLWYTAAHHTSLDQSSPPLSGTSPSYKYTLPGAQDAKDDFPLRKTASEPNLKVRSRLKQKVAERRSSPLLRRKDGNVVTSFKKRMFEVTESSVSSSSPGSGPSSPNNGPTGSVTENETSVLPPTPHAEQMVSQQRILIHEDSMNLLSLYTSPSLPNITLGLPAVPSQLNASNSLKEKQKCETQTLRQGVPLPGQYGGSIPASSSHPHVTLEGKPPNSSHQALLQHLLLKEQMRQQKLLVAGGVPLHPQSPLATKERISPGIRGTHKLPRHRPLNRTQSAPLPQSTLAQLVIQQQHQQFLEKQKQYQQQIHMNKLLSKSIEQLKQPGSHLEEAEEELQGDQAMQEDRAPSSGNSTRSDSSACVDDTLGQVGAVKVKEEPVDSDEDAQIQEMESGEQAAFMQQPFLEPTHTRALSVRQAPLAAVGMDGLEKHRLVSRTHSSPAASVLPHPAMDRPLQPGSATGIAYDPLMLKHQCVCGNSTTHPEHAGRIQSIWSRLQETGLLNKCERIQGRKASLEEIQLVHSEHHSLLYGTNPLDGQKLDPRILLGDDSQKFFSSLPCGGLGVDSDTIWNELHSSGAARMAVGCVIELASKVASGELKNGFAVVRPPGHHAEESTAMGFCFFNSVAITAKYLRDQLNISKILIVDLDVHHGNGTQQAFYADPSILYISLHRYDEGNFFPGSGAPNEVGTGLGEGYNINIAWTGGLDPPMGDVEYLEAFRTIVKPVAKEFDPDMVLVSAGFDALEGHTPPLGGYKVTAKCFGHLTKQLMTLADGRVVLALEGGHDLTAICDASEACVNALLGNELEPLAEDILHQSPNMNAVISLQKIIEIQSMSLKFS
Sequence of Histone deacetylase 5 (Q9UQL6 whole entry): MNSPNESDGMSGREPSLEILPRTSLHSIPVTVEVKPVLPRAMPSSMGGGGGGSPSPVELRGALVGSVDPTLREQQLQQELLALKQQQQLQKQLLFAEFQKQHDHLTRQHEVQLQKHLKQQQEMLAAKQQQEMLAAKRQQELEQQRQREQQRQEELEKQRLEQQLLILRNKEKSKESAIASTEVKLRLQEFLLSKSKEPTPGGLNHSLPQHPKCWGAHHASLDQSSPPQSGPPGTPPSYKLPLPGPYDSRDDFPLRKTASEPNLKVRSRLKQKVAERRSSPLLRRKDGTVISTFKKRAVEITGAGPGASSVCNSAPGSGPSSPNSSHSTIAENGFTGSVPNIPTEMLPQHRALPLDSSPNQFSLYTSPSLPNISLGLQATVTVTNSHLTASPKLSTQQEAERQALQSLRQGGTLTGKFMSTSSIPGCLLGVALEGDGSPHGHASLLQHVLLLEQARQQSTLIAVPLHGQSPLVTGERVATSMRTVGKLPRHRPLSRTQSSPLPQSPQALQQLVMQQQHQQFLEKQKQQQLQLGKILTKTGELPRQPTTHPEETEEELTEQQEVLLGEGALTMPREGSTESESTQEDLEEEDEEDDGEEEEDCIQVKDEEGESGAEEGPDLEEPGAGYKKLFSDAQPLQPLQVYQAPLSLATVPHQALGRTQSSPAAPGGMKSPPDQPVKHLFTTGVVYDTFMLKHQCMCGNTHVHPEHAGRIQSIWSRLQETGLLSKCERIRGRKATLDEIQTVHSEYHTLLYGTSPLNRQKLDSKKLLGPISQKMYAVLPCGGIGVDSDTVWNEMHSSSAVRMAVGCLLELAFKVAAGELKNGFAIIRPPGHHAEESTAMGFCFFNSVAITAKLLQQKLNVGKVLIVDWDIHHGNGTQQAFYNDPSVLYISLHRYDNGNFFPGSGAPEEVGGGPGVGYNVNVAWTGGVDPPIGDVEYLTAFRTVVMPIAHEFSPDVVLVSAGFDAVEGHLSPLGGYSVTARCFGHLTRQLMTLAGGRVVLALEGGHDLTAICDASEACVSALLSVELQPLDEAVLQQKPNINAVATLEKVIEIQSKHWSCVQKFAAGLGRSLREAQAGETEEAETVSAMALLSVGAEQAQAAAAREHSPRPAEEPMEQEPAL
Sequence of Histone deacetylase 1 (Q13547 whole entry): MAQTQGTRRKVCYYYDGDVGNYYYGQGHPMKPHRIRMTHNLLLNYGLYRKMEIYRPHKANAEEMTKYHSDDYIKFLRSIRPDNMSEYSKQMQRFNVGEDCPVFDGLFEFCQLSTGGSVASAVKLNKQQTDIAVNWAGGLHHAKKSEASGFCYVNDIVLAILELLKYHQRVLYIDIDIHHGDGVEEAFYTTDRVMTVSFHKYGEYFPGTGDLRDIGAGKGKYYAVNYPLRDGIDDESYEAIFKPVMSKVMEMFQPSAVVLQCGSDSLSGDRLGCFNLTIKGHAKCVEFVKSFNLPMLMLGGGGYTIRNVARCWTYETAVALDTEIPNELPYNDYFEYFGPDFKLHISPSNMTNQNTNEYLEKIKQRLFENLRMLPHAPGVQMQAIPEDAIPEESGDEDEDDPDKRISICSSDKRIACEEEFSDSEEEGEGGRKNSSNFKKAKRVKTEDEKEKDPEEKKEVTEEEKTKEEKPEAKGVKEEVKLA

For orientation: IC50 means the concentration at which inhibition is half-maximal. Consider `NC(=O)c1ccccc1Nc1cccc(OCCc2ccccc2)c1`, for which the Activity entry in [1] was “Dose-dependent effect”. Further, the IC50 in data set [2], in data set [3], in data set [4], in [5], in data set [6] and in [7] was over 30 µM in each case. In [9], this molecule displayed an IC50 of over 30 µM. Also, the remaining at 0.25 h in data set [8] was found to be 64%.
